The record followed here is ChEMBL document CHEMBL4602639, “A novel series of 11-O-carbamoyl-3-O-descladinosyl clarithromycin derivatives bearing 1,2,3-triazole group: Design, synthesis and antibacterial evaluation” (2020).

≈ marks a conversion by molar mass, not a printed value.

Holding throughout (assay type): functional
For assay [1], the system named is Streptococcus pneumoniae. Briefly: Potency index, ratio of MIC of CAM to MIC of compound for antibacterial activity against erythromycin-resistant Streptococcus pneumoniae B1 expressing ermB gene.
Assay [2] concerns Streptococcus pneumoniae. Description: Potency index, ratio of MIC of AZM to MIC of compound for antibacterial activity against erythromycin-resistant Streptococcus pneumoniae AB11 expressing ermB and me/A genes.
For assay [3], the system named is Staphylococcus aureus. Description: Potency index, ratio of MIC of CAM to MIC of compound for antibacterial activity against methicillin-resistant Staphylococcus aureus ATCC 43300.
Assay [4] concerns Streptococcus pneumoniae. Description: Potency index, ratio of MIC of AZM to MIC of compound for antibacterial activity against erythromycin-resistant Streptococcus pneumoniae B1 expressing ermB gene.
Assay [5] has as its system Streptococcus pneumoniae. Description: Ratio of MBC for erythromycin-resistant Streptococcus pneumoniae AB11 expressing ermB and me/A genes to MIC for erythromycin-resistant Streptococcus pneumoniae AB11 expressing ermB and me/A genes.
Assay [6] has as its system Streptococcus pyogenes. Description: Potency index, ratio of MIC of CAM to MIC of compound for antibacterial activity against erythromycin resistant Streptococcus pyogenes R1.
In assay [7] the test system is Streptococcus pyogenes. Description: Antibacterial activity against erythromycin resistant Streptococcus pyogenes R1 by standard broth microdilution method. In general terms: In broth dilution the organism is exposed to a series of concentrations in liquid medium.
For assay [8], the system named is Streptococcus pneumoniae. Briefly: Bactericidal activity against erythromycin-resistant Streptococcus pneumoniae AB11 expressing ermB and me/A genes.
The subject of assay [9] is Staphylococcus aureus. Briefly: Potency index, ratio of MIC of AZM to MIC of compound for antibacterial activity against methicillin-resistant Staphylococcus aureus ATCC 43300.
The subject of a further assay is Escherichia coli. Briefly: Antibacterial activity against penicillin-susceptible Escherichia coli ATCC 25922 by standard broth microdilution method.
The test system of the next assay is Pseudomonas aeruginosa. Briefly: Antibacterial activity against penicillin-susceptible Pseudomonas aeruginosa ATCC 27853 by standard broth microdilution method.
The subject of assay [10] is Streptococcus pneumoniae. Description: Antibacterial activity against erythromycin-resistant Streptococcus pneumoniae AB11 expressing ermB and me/A genes by standard broth microdilution method.
Assay [11] concerns Staphylococcus aureus. Briefly: Antibacterial activity against methicillin-resistant Staphylococcus aureus ATCC 43300 by standard broth microdilution method.
The test system of assay [12] is Bacillus subtilis. Briefly: Ratio of MBC for penicillin-susceptible Bacillus subtilis ATCC 9372 to MIC for penicillin-susceptible Bacillus subtilis ATCC 9372.
The test system of assay [13] is Staphylococcus aureus. Description: Antibacterial activity against erythromycin-susceptible Staphylococcus aureus ATCC 25923 by standard broth microdilution method.
In assay [14] the test system is Bacillus subtilis. Description: Antibacterial activity against penicillin-susceptible Bacillus subtilis ATCC 9372 by standard broth microdilution method.
For assay [15], the system named is Streptococcus pyogenes. Description: Potency index, ratio of MIC of AZM to MIC of compound for antibacterial activity against erythromycin resistant Streptococcus pyogenes R1.
Assay [16] relates to Streptococcus pneumoniae. Briefly: Potency index, ratio of MIC of CAM to MIC of compound for antibacterial activity against erythromycin-resistant Streptococcus pneumoniae AB11 expressing ermB and me/A genes.
Assay [17] deals with Streptococcus pneumoniae. Briefly: Antibacterial activity against erythromycin-resistant Streptococcus pneumoniae B1 expressing ermB gene by standard broth microdilution method.
Assay [18] deals with Bacillus subtilis. Description: Bactericidal activity against penicillin-susceptible Bacillus subtilis ATCC 9372.

Consider `CC[C@H]1OC(=O)[C@H](C)C(=O)[C@H](C)[C@@H](O[C@H]2O[C@@H](C)C[C@@H](N(C)C)[C@@H]2O)[C@](C)(OC)C[C@@H](C)C(=O)[C@H](C)[C@@H](OC(=O)NCCCn2cc(-c3ccc(-c4ccccc4)cc3)nn2)[C@]1(C)O`, for which the Ratio in the assay with Streptococcus pneumoniae [1] is recorded as over 16; in the assay on Streptococcus pneumoniae [2], 8 - 16; with Staphylococcus aureus [3] it was over 4; in the assay on Streptococcus pneumoniae [4], over 16; in the assay with Streptococcus pneumoniae [5], 8; with Streptococcus pyogenes [6], 8 - 16. Also, the Ratio in the assay on Staphylococcus aureus [9] is reported as over 4; in the assay on Bacillus subtilis [12], 32; in the assay with Streptococcus pyogenes [15] it was 8 - 16; in the assay on Streptococcus pneumoniae [16], 4 - 8. Besides, the MIC – broadly, the least concentration at which growth counts as inhibited – is 16 µg/mL (≈ 17.9 µM) against Streptococcus pyogenes [7]; over 128 µg/mL against Escherichia coli; 128 µg/mL (≈ 143 µM) against Pseudomonas aeruginosa; 16 µg/mL (≈ 17.9 µM) with Streptococcus pneumoniae [10]; 64 µg/mL (≈ 71.7 µM) against Staphylococcus aureus [11]; 4 µg/mL (≈ 4.48 µM) against Staphylococcus aureus [13]. Further, the results for the MIC against Bacillus subtilis [14] and with Streptococcus pneumoniae [17] were 1 µg/mL (≈ 1.12 µM) and 16 µg/mL (≈ 17.9 µM), respectively. Also, the minimal bactericidal concentration (MBC) – broadly, the smallest concentration meeting the test's criterion for killing – in the assay with Streptococcus pneumoniae [8] stood at 128 µg/mL (≈ 143 µM); against Bacillus subtilis [18] it was 32 µg/mL (≈ 35.9 µM).
